Data set [1] in a line: Sirolimus content of rabbit iliac arteries after inflation of sirolimus coated balloons. The format is in vivo. Here is the method: GHOST Rapid Exchange (Rx) Catheter was used in this example. Ghost 3.0×18 mm Rx catheter balloons were coated and used in animal study
A. Expansion in rabbit iliac arteries: 8 balloons (4 rabbits)
(§1) • 4 balloons—Balloons inflated in pre-dilated arteries (right iliac) for 60 seconds • 4 balloons—Balloons inflated in non-dilated arteries (left iliac) for 60 seconds B. Tracking Studies: 4 balloons (1 rabbit) • 4 balloons—Balloons inserted and not inflated in aorta for 2 min, then removed C. Sirolimus Quantification • Sirolimus content from: 8 balloons inflated in rabbit iliac arteries 4 balloons not inflated in rabbit aorta 8 rabbit iliac arteries (after balloon inflation) 8 whole blood samples (2 samples/rabbit) • Liver, kidney, spleen, heart, lung: stored (−80° C.) for later drug analysis Sirolimus Concentrations in Rabbit Iliac Arteries
• Drug coated balloons in right iliac arteries inflated/deflated—10-20 min before sacrifice • Drug coated balloons in left iliac arteries inflated/deflated—5-15 min before sacrifice Transfer Efficiency of Sirolimus to Rabbit Iliac Arteries
• Balloons inflated for 1 min in respective iliac arteries • % Sirolimus transferred to artery based on balloon batch average from UV-Vis data • Estimated time artery exposed to blood flow is time after balloon inflation

A short description of data set [2]: Sirolimus concentrations in whole blood samples after balloon inflation. Format: in vivo, rabbit. To be noted: for Est. Total Sirolimus in Blood: based on 56 mL per kg. How it is done:
as §1
• Baseline samples taken before balloon inflation • After 2nd balloon inflation, blood samples were taken 5-15 min later • 5-15 min samples are the cumulative Sirolimus concentration from the inflation of 2 drug coated balloons per animal Total Sirolimus in blood based on 56 mL per kg Sirolimus Concentrations on Drug Coated Balloons (Rabbits)

Where [3] appears, read: Combined Right + Left Iliac Arteries, n = 8.

This note sets out measurements from patent US10350391B2, “Drug delivery medical device” (Micell Technologies, Inc., priority 2009, dated 2019).

“And” between values parts separate entries of the source, which are not always exact repeats. Identical values can stand only once. Like-named read-outs stand apart in the source and are kept apart here.

For `CO[C@H]1C[C@@H]2CC[C@@H](C)[C@@](O)(O2)C(=O)C(=O)N2CCCC[C@H]2C(=O)O[C@H]([C@H](C)C[C@@H]2CC[C@@H](O)[C@H](OC)C2)CC(=O)[C@H](C)/C=C(\C)[C@@H](O)[C@@H](OC)C(=O)[C@H](C)C[C@H](C)/C=C/C=C/C=C/1C` [Sirolimus, rapamycin], the “Average Sirolimus” value in data set [1] (setting [3]) is 197.2 ± 85.3 ng/mg and 197.2 ng/mg; in data set [1] (Left Iliac (uninjured), n = 4, coated balloon inflated 60 s, 5-15 min before sacrifice), 216.1 ng/mg; in data set [1] (Right Iliac (denuded), n = 4, coated balloon inflated 60 s, 10-20 min before sacrifice) it was 178.3 ng/mg. The “Total Sirolimus per Artery Average” value in data set [1] (setting [3]) was 4.7 µg; in data set [1] (Left Iliac (uninjured), n = 4), 3.9 µg; in data set [1] (Right Iliac (denuded), n = 4) it was 5.4 µg. Also, the “Total Sirolimus per Artery” value in data set [1] (average of the 8 balloons/arteries) stood at 4.7 µg. In addition, the “% Sirolimus Transferred to Artery” value in data set [1] (average of the 8 balloons/arteries, based on balloon batch average from UV-Vis data) is 7.8±2.8% and 7.8%. The “Est. Total Sirolimus in Blood” value in data set [2] (average of 4 rabbits (5-15 min)) was 5.4 ± 2.3 µg and 5.4 µg; in data set [2] (rabbit #1, 15 min), 2.7 µg; in data set [2] (rabbit #2, 5 min), 8.2 µg; in data set [2] (rabbit #3, 5 min), 5.9 µg; in data set [2] (rabbit #4, 10 min), 4.8 µg. Besides, the concentration at 15 min in data set [2] (rabbit, whole blood, rabbit #1, 15 min after 2nd balloon inflation, cumulative of 2 coated balloons, read-out: Extraction Conc.) amounted to 11.4 ng/mL. For the same molecule, the concentration at 5 min in data set [2] (rabbit, whole blood, rabbit #2, 5 min after 2nd balloon inflation, cumulative of 2 coated balloons, read-out: Extraction Conc.) was found to be 30.8 ng/mL; in data set [2] (rabbit, whole blood, rabbit #3, 5 min after 2nd balloon inflation, cumulative of 2 coated balloons, read-out: Extraction Conc.), 22.2 ng/mL. Moreover, the concentration at 10 min in data set [2] (rabbit, whole blood, rabbit #4, 10 min after 2nd balloon inflation, cumulative of 2 coated balloons, read-out: Extraction Conc.) worked out at 19.3 ng/mL. For the same molecule, the “Extraction Conc.” value in data set [2] (whole blood, average of 4 rabbits (5-15 min)) stood at 20.9 ng/mL.
